Laboratory results published in paper PMC12362796, “Bilirubin Targeting WNK1 to Alleviate NLRP3‐Mediated Neuroinflammation” (Advanced Science, 2025).

How the values were obtained:
hWNK2 = target: T1, hWNK2 (Homo sapiens, UniProt Q9Y3S1); test: MST, WNK kinase family member WNK2; format: binding
T1 construct: host or cells: HEK293T
Procedure: (§1) To validate the direct binding of bilirubin to WNK1, we performed a Microscale Thermophoresis (MST) analysis, which assesses the binding capacity of a compound by measuring the movement of proteins over a microscopic temperature gradient.^[ [26], [27] ^] We overexpressed full‐length WNK1 fused with Green Fluorescent Protein (GFP) in HEK‐293 cells, incubated the lysates with bilirubin at varying dilutions, and subjected them to precise MST measurements in capillaries. […] Furthermore, biliverdin, a structurally similar intermediate product generated before bilirubin formation, was used as a control.
(§2) All WNK1 clones were derived from the original untagged hWNK1 cDNA (NM_018979), which was modified and subcloned into the pcDNA3.1, referred to as “full‐length WNK1” throughout this study. Truncated constructs, including 1–190aa, 191–491aa, 1–491aa, and 491–2382aa fragments, were generated by PCR using the full‐length template and subsequently ligated into linearized pcDNA3.1 vectors. WNK2 was obtained from Addgene Plasmid #24569, and WNK3 was obtained from Addgene Plasmid #81723. Both were subjected to base modifications and cloned into pcDNA3.1. The WNK4 clone was derived from hWNK4 cDNA (NM_032387.5), modified, and subcloned into the pCMV3‐C‐GFPSpark vector.
(§3) In HEK293T cells, proteins tagged with green fluorescent protein (GFP) were expressed. […]

hWNK3 = target: T2, hWNK3 (Homo sapiens, UniProt Q9BYP7); test: MST, WNK kinase family member WNK3; format: binding
T2 construct: host or cells: HEK293T
Procedure: as §1, §2, §3

hWNK4 = target: T3, hWNK4 (Homo sapiens, UniProt Q96J92); test: MST, WNK kinase family member WNK4; format: binding
T3 construct: expressed in transfected cells; host or cells: HEK293T
T3 sequence (Q96J92 whole entry): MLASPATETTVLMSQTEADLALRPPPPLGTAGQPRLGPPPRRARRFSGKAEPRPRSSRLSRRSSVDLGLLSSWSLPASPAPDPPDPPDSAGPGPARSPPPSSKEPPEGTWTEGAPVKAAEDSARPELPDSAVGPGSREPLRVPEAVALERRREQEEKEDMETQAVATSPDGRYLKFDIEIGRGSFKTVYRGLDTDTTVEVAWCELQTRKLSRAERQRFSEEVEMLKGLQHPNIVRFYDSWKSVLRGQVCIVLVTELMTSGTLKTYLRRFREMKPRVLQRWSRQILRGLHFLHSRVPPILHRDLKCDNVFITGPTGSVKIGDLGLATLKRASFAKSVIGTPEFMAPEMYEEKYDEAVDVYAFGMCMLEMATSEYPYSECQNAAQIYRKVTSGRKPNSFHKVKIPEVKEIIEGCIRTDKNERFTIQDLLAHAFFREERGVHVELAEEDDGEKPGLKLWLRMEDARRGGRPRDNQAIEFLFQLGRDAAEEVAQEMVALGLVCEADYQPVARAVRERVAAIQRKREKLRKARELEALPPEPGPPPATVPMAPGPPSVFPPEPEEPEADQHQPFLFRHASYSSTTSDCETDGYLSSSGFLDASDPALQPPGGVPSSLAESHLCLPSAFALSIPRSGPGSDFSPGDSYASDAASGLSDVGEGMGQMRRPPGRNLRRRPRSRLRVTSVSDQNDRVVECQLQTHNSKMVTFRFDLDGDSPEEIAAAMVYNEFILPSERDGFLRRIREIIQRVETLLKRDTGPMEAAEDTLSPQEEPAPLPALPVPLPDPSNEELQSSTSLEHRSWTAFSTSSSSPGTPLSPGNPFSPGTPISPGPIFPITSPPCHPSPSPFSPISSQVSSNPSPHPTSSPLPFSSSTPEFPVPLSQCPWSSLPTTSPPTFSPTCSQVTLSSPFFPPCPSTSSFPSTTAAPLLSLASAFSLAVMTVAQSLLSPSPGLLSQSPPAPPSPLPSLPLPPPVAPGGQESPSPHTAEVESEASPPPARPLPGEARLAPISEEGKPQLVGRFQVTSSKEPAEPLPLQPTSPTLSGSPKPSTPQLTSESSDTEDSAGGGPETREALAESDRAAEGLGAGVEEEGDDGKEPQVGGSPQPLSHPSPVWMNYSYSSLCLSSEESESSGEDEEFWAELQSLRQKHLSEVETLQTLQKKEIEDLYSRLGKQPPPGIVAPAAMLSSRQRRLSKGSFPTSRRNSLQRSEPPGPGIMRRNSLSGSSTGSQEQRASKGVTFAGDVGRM
Procedure: as §1, §2, §3

[1] = system: OSR1 and SPAK phosphorylation; test: Western blotting of OSR1 and SPAK phosphorylation in hippocampus; format: cell-based, mouse
Excerpt: To further investigate the impact of bilirubin on WNK1 kinase activity, we generated hippocampal neuron‐specific Wnk1 knockout mice. Given that conventional Wnk1 knockout mice are embryonically lethal, we employed the CRISPR/Cas9 method to create mice carrying the floxed Wnk1 gene. Then we crossed Thy1‐Cre mice with Wnk1^flox/flox mice to generate hippocampal neuron‐specific Wnk1 knockout mice. We examined the effects of bilirubin on the phosphorylation of WNK1 downstream targets, Ste20‐related proline alanine‐rich kinase (SPAK), and oxidative stress‐responsive kinase 1 (OSR1), in the hippocampus of Wnk1^flox/flox and Wnk1^flox/flox,Thy1‐Cre mice. Upon bilirubin treatment, phosphorylation of OSR1 and SPAK was elevated in the hippocampus of Wnk1^flox/flox mice. […] These findings indicate that the effect of bilirubin on OSR1 and SPAK phosphorylation is WNK1‐dependent (Figure 4B). To rule out the potential effects of osmolarity on the phosphorylation of WNK1, OSR1, and SPAK, we measured the osmolarity of different bilirubin concentrations.
(§4) Cells or tissues were lysed by grinding in RIPA buffer (cat. no. PC101; Epizyme Biotech) supplemented with a protease inhibitor cocktail (cat. no. 5872S; Cell Signaling Technology) at 4 °C. […] The total protein concentration was determined using the Pierce BCA Protein Assay Kit (cat. no. 23 225, Thermo Fisher Scientific). […]

phospho-S940 KCC2 = test: Western blotting of phospho-S940 KCC2 in hippocampal tissue; format: cell-based, mouse
Excerpt: Since bilirubin‐induced activation of WNK1 kinase activity increases [Cl⁻]i in neurons, we sought to elucidate the downstream effector proteins of WNK1 that are involved in this process. Neuronal [Cl⁻]i is primarily regulated by the Cl⁻‐K⁺ symporter KCC2, with additional modulation by factors such as the Na⁺‐K⁺‐Cl⁻ co‐transporter NKCC1, GABAA receptors, and glycine receptors (GlyR), all of which contribute to [Cl⁻]i homeostasis.^[ [31] ^] To investigate the mechanism underlying bilirubin‐induced changes in [Cl⁻]i, we selectively targeted these proteins using pharmacological inhibitors (VU0463271 for KCC2, bumetanide for NKCC1, bicuculline for GABAA receptors, and strychnine for GlyR) and activated KCC2 using CLP257.^[ [35], [36] ^] […]
as §4

primary astrocytes = test: MQAE intracellular chloride measurement in primary astrocytes; format: cell-based; settings: lacking KCC2 expression
Excerpt: Since bilirubin‐induced activation of WNK1 kinase activity increases [Cl⁻]i in neurons, we sought to elucidate the downstream effector proteins of WNK1 that are involved in this process. Neuronal [Cl⁻]i is primarily regulated by the Cl⁻‐K⁺ symporter KCC2, with additional modulation by factors such as the Na⁺‐K⁺‐Cl⁻ co‐transporter NKCC1, GABAA receptors, and glycine receptors (GlyR), all of which contribute to [Cl⁻]i homeostasis.^[ [31] ^] To investigate the mechanism underlying bilirubin‐induced changes in [Cl⁻]i, we selectively targeted these proteins using pharmacological inhibitors (VU0463271 for KCC2, bumetanide for NKCC1, bicuculline for GABAA receptors, and strychnine for GlyR) and activated KCC2 using CLP257.^[ [35], [36] ^] […] The bilirubin‐induced effect on [Cl⁻]i was not observed in primary astrocytes (Figure S15A,B, Supporting Information) or the HEK 293T cell line (Figure S15C, Supporting Information), both of which lacked KCC2 expression (Figure S16A,B, Supporting Information), further confirming that the effects of bilirubin and WNK1 on [Cl⁻]i elevation are dependent on KCC2.
Intracellular chloride concentration ([Cl⁻]i) was measured using the MQAE fluorescent dye (Life Technologies) following established protocols (Zhang, Lee et al. 2015). […]

T1 sequence (Q9Y3S1 whole entry): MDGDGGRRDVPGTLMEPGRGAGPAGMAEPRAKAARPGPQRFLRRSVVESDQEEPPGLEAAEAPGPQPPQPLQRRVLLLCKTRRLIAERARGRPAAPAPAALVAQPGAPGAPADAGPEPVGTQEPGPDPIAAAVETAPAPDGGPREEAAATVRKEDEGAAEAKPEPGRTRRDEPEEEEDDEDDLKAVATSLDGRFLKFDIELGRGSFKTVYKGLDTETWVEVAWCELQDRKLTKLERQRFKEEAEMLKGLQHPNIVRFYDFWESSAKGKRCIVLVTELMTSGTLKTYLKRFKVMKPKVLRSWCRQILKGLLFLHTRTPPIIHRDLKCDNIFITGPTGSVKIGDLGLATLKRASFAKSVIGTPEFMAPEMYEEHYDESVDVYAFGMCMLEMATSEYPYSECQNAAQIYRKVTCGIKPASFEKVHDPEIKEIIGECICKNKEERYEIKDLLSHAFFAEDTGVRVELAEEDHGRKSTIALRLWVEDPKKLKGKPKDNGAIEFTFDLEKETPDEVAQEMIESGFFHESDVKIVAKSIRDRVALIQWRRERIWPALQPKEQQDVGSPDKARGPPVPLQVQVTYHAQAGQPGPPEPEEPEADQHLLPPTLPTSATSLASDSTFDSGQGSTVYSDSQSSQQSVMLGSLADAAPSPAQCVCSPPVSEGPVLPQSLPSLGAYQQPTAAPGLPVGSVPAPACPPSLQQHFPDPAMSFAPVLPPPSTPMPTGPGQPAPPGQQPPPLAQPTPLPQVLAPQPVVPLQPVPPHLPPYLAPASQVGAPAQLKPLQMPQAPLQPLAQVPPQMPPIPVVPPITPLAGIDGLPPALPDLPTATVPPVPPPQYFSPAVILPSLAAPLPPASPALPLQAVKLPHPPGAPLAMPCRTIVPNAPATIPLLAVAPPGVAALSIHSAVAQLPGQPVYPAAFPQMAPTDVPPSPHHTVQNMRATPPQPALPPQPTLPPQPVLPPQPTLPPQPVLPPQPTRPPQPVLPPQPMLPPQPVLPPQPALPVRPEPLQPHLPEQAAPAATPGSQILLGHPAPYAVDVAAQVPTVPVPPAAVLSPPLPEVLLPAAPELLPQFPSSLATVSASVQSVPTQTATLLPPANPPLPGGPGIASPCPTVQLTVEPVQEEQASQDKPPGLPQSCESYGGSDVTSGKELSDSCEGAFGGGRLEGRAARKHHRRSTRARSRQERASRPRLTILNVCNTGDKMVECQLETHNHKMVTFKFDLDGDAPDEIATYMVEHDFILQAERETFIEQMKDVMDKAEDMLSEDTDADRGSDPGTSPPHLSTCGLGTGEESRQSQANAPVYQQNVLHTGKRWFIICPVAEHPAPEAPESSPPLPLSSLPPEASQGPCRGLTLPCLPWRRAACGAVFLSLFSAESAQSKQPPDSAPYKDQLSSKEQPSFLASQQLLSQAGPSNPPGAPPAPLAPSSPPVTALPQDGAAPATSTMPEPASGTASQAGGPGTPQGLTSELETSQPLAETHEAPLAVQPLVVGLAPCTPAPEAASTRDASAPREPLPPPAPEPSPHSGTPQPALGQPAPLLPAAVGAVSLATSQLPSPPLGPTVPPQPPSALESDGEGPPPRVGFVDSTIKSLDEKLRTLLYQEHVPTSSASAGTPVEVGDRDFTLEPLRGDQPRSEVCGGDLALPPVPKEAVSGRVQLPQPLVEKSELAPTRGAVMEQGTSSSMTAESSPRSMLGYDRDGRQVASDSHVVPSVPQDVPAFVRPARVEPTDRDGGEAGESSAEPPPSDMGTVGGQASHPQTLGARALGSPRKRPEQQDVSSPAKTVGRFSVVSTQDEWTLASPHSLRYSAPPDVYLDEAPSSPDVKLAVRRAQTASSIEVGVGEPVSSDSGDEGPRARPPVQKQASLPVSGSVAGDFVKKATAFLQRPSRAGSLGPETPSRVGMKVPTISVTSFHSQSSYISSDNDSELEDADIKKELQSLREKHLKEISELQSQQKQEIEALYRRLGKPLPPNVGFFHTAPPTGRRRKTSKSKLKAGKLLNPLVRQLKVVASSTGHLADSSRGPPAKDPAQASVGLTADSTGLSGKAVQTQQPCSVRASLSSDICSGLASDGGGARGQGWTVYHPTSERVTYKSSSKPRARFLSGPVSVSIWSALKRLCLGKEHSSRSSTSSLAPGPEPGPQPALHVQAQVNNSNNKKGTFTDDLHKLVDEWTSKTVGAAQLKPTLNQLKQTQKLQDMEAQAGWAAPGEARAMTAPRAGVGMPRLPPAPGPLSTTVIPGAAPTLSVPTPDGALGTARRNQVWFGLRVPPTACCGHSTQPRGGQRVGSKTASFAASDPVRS

Compound: C=CC1=C(C)/C(=C/c2[nH]c(Cc3[nH]c(/C=C4\NC(=O)C(C)=C4C=C)c(C)c3CCC(=O)O)c(CCC(=O)O)c2C)NC1=O [bilirubin, Bilirubin]
- Kd (hWNK2): 530 nM
- Kd (hWNK3): 760 nM
- Kd (hWNK4): 280 nM
- phosphorylation of OSR1 and SPAK ([1]; hippocampus of Wnk1flox/flox mice): elevated
- phosphorylation of OSR1 and SPAK ([1]; hippocampus of Wnk1flox/flox,Thy1-Cre mice): minimal impact
- relative expression of phospho-S940 KCC2 (phospho-S940 KCC2; Wnk1fl/fl mice hippocampal tissue): decrease
- relative expression of phospho-S940 KCC2 (phospho-S940 KCC2; Wnk1fl/fl,Thy1-Cre mice hippocampal tissue): no such effect
- bilirubin-induced effect on [Cl−]i (primary astrocytes): not observed
